Consider seven compounds from US7834053B2, “Medicinal compositions improving brain function and method for improving brain function” (priority 2002, dated 2010).

Where “and” joins values, the source holds several entries; their conditions need not be identical. Equal entries are not always repeated.

The conditions of experiment [1]: reported in the literature; cited from earlier work.
Experiment [2] deals with neuronal death caused by amyloid-beta-protein. Conditions: Society for Neuroscience Abstracts 24, Part 1, 228, 1998; cited from earlier work.
The test system of a further experiment is ddY male mice. Kind of experiment: Anti-hypoxic activity: survival time of mice in 4% oxygen / 96% nitrogen after oral administration. The experiment is classed as in vivo. How it is done:
Test compounds A1, A2, A3, B1 and B2 were put to use after dissolution in distilled water. Test compounds C1 and C2 were put to use after suspending them in 0.5% solution of methylcellulose.
The test was carried out according to the method described in Japanese Journal of Pharmacology, Vol. 62, Page 81, 1993.
To one group (6-10 animals) of ddY male mice having an age of 4-5 weeks was orally administered a test compound dissolved in distilled water or suspended in 0.5% methyl cellulose solution. Thirty minutes after the administration, the mice were introduced into a glass container at a volume of 300 mL, and a gaseous mixture composed of 4% of oxygen and 96% of nitrogen was passed though the glass container at a flow rate of 5 L/minute. The period of time from the start of passing the gaseous mixture to the death of the mice was measured. To the control group, distilled water was administered orally.

Another experiment deals with nerve growth factor. Conditions: WO96/12717; cited from earlier work.
The conditions of experiment [3]: Society for Neuroscience Abstracts 21, 947, 1995; cited from earlier work.
The subject of another experiment is in-brain acetylcholine. Conditions: Society for Neuroscience Abstracts 21, 947, 1995; cited from earlier work.
[4] abbreviates: 10 mg/kg oral, alone, survival time vs control x100, 30 min after administration.
Setting [5] is: Compound (1) 10 mg/kg oral in combination with Compound B1 (Donepezil) 3 mg/kg.
The mark [6] stands for this setting: Compound (1) 10 mg/kg oral in combination with Compound B2 (Tacrine) 10 mg/kg.
Where [7] appears, read: 100 mg/kg oral, alone, survival time vs control x100.

As to `CCN(CC)CCOC[C@H](O)c1ccc2sccc2c1.Cl` [Compound A1, (R)-1-{benzo[b]thiophen-5-yl}-2-[2-(N,N-diethylamino}ethoxy]ethanol hydrochloride], in experiment [1], the anti-hypoxic activity entry is recorded as “has an anti-hypoxic activity”. Besides, the “protecting effect on the neuronal death caused by amyloid-beta-protein” value in experiment [2] is “exhibits a protecting effect”. The “Anti-hypoxic activity (%)” value was 137% in the experiment on ddY male mice (setting [4]), 211% in the experiment on ddY male mice (setting [5]) and 172% in the experiment with ddY male mice (setting [6]). Also, the “effect on the action of nerve growth factor” value in the experiment with nerve growth factor is “exhibits an increasing effect”. Moreover, the anti-amnestic activity entry in experiment [3] is listed as “an anti-amnestic activity”. Also, in the experiment with in-brain acetylcholine, the “release of in-brain acetylcholine” value is “promotes the release of in-brain acetylcholine”.
As for `CN(CCO)CCCOCCc1ccc2sccc2c1.CN(CCO)CCCOCCc1ccc2sccc2c1.O=C(O)/C=C/C(=O)O` [Compound A2, 2-[[3-(2-benzo[b]thiophen-5-yl-ethoxy)propyl](methyl)amino]-1-ethanol.1/2fumarate], the results for the “Anti-hypoxic activity (%)” value with ddY male mice (setting [4]), in the experiment on ddY male mice (setting [5]) and in the experiment with ddY male mice (setting [6]) were 114%, 168% and 172%, respectively.
The corresponding values for `O=C(O)/C=C\C(=O)O.OC1CN(CCCOCCc2ccc3sccc3c2)C1` [Compound A3, 1-[3-(2-(1-benzothiophen-5-yl)ethoxy]-propyl]-3-azetidinol-maleate] are 111%, 190% and 149%.
Regarding `COc1cc2c(cc1OC)C(=O)C(CC1CCN(Cc3ccccc3)CC1)C2` (centres unmarked) [Compound B1, Donepezil], in the experiment on ddY male mice (3 mg/kg oral, alone, survival time vs control x100), the “Anti-hypoxic activity (%)” value is 119% and 104%.
Take `Cl.Nc1c2c(nc3ccccc13)CCCC2` [Compound B2, 1,2,3,4-tetrahydro-9-acridinamine hydrochloride]: the anti-hypoxic activity entry in experiment [1] is “anti-hypoxic activity is shown”. Besides, the “Anti-hypoxic activity (%)” value in the experiment with ddY male mice (10 mg/kg oral, alone, survival time vs control x100, 30 min after administration, hydrochloride) is 127% and 107%.
For the compound `COC1=C(OC)C(=O)C(CCCCCCCCCCO)=C(C)C1=O` [Compound C1, Idebenone], the “Anti-hypoxic activity (%)” value in the experiment on ddY male mice (setting [7]) is recorded as 104%; with ddY male mice (300 mg/kg oral, alone, survival time vs control x100) it was 108%; with ddY male mice (Compound (1) 300 mg/kg oral in combination with Compound B1 (Donepezil) 3 mg/kg) it was 100%.
As to `Cl.FC(F)(F)c1cccc(C2=CCN(CCc3ccc4ccccc4c3)CC2)c1` [Compound C2, SR57746A], the “Anti-hypoxic activity (%)” value with ddY male mice (30 mg/kg oral, alone, survival time vs control x100) is 100%; in the experiment on ddY male mice (setting [7]), 123%; in the experiment on ddY male mice (Compound (1) 100 mg/kg oral in combination with Compound B1 (Donepezil) 3 mg/kg), 111%.
